# Source: BindingDB's records for doi:10.1021/acs.jmedchem.3c00363 (University of Regensburg, 2023)
# Starred links: 1 amine or outer side, 2 acyl side, 3 side chain; linkers in the order of their positions; H or OH if unused. Non-standard residues stand in square brackets, D forms with d. Residues, ends and D or L forms follow the SMILES beside them. X1 = O=C([C@@H]1C[C@@H](c2ccccc2)[C@@H]1CN[*:1])[*:2]; X2 = O=C([C@H]1C[C@H](c2ccccc2)[C@H]1CN[*:1])[*:2]
# Biological target: Neuropeptide Y receptor type 1 (Homo sapiens) (UniProt P25929)
# Experiment: Displacement of [3H]UR-MK299 from human Y1 receptor expressed in human SK-N-MC cells measured after 90 mins by MicroBeta plate counter based competition binding assay
# Sequence of Neuropeptide Y receptor type 1 (Homo sapiens) (P25929 whole entry, looked up): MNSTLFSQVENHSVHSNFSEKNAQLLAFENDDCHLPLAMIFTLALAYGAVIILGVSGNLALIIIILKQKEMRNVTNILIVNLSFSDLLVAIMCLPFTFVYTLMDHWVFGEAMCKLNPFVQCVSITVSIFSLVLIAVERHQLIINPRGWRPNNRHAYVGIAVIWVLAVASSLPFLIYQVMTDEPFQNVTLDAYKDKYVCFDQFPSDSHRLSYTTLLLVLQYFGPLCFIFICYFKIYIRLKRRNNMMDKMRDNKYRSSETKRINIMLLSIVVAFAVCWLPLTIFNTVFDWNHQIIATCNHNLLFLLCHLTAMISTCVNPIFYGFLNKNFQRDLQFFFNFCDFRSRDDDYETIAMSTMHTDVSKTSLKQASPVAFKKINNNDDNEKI
row,Ki [nM],SMILES
1,> 1000,CC(=O)N[C@@H](CCCNC(=N)N)C(=O)NC[C@@H]1[C@H](C(=O)N[C@@H](CCCNC(=N)N)C(=O)NC[C@@H]2[C@H](C(=O)N[C@@H](CCCNC(=N)N)C(=O)N[C@@H](Cc3ccc(O)cc3)C(N)=O)C[C@H]2c2ccccc2)C[C@H]1c1ccccc1 (Ac-R[X1]R[X1]RY-NH2)
2,1180,CC(=O)N[C@@H](CCCNC(=N)N)C(=O)N[C@@H](Cc1ccc(O)cc1)C(=O)N[C@@H](CCCNC(=N)N)C(=O)N[C@@H](CC(C)C)C(=O)N[C@@H](CCCNC(=N)N)C(=O)N[C@@H](Cc1ccc(O)cc1)C(N)=O
3,> 3000,CC(=O)N[C@@H](CCCNC(=N)N)C(=O)NC[C@H]1[C@@H](C(=O)N[C@@H](CCCNC(=N)N)C(=O)N[C@@H](CC(C)C)C(=O)N[C@@H](CCCNC(=N)N)C(=O)N[C@@H](Cc2ccc(O)cc2)C(N)=O)C[C@@H]1c1ccccc1 (Ac-R[X2]RLRY-NH2)
4,230,CC(=O)N[C@@H](CCCNC(=N)N)C(=O)NC[C@@H]1[C@H](C(=O)N[C@@H](CCCNC(=N)N)C(=O)N[C@@H](CC(C)C)C(=O)N[C@@H](CCCNC(=N)N)C(=O)N[C@@H](Cc2ccc(O)cc2)C(N)=O)C[C@H]1c1ccccc1 (Ac-R[X1]RLRY-NH2)
5,> 1050,CC(=O)N[C@@H](CCCNC(=N)N)C(=O)NC[C@H]1[C@@H](C(=O)N[C@@H](CCCNC(=N)N)C(=O)NC[C@H]2[C@@H](C(=O)N[C@@H](CCCNC(=N)N)C(=O)N[C@@H](Cc3ccc(O)cc3)C(N)=O)C[C@@H]2c2ccccc2)C[C@@H]1c1ccccc1 (Ac-R[X2]R[X2]RY-NH2)
